GI50 and TGI data for 20 compounds are collected here from PubChem BioAssay (NCI).

“And” between values parts separate entries of the source, which are not always exact repeats. Equal values may be shown once.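 Exposure lasted 48 hours, with cells grown in 96-well plates and compounds tested at five concentrations. GI50 marks 50% less growth. TGI: concentration producing complete growth inhibition.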 Some results are limits rather than exact numbers.

Common to all, as to experiment: inhibition of tumour cell growth, NCI panel, 48 h
In test [1] the test system is SN12C renal.
The subject of test [2] is KM12 colon.
The subject of test [3] is MCF7 breast.
Test [4] deals with SK-MEL-28 melanoma.
For test [5], the system named is OVCAR-4 ovarian.
Test [6] concerns HCC-2998 colon.
Test [7] concerns PC-3 prostate.
In test [8] the test system is EKVX NSCLC.
In test [9] the test system is COLO 205 colon.
Test [10] has as its system HL-60(TB) leukemia.

For the compound `COC(=O)C(C)NC(=O)c1ccccc1I(OS(=O)(=O)C(F)(F)F)c1ccccc1` (configuration not stated), the GI50 in test [1] is 15.4 µM; in test [2], 17.7 µM; in test [3], 22.3 µM; in [4] it was 18.7 µM; in test [5], 19.1 µM; in test [6] it was 14.7 µM. The GI50 in test [7] was 22 µM; in [8], 25.6 µM; in [9], 23.6 µM. For the same compound, the TGI is 32.4 µM in test [1]; 38.7 µM in [2]; above 65.5 µM in test [3]; 45.3 µM in test [4]; 50.9 µM in test [5]; 32.3 µM in [6]. Further, the TGI in test [7] amounted to 53.1 µM; in [8], 88.9 µM; in [9], 45.9 µM.

For the compound `CC#Cc1nc(Nc2cc(C)[nH]n2)c2ccccc2n1`, the GI50 was 3.08 µM in [1]; 4.38 µM and 2.4 µM in [2]; 3.32 µM in test [3]; 7.76 µM in test [4]; 3.46 µM in [5]; 2.43 µM in test [6]. For the same compound, the results for the GI50 in [7] and in test [9] were 5.22 µM and 3.26 µM, respectively. The TGI was 10.4 µM in [1]; 12.4 µM in [2]; 95.7 µM in test [3]; above 100 µM in [4]; above 100 µM in test [5]; 5.48 µM in test [6]. The TGI came out at 21.6 µM in [7] and 10.3 µM in [9].

With `C=C1C(=O)O[C@H]2[C@H]1CC/C(COC(=O)NCc1ccc(Cn3c(=O)sn(-c4ccccc4)c3=O)cc1)=C\CC[C@@]1(C)O[C@@H]21`, the GI50 in test [1] was 2.14 µM; in test [2] it was 3.46 µM; in test [3], 1.59 µM; in [4], 1.7 µM; in test [5], 2.74 µM; in test [6], 1.99 µM. The GI50 in test [7] was 2.36 µM; in test [8] it was 1.85 µM; in test [9], 1.77 µM. In addition, the TGI in [1] stood at 5.1 µM; in [2] it was 12.7 µM; in test [3] it was 3.55 µM; in [4] it was 3.41 µM; in test [5] it was 8.19 µM; in test [6], 3.82 µM. Besides, the TGI was 5.63 µM in [7], 4.38 µM in test [8] and 3.44 µM in [9].

`Oc1c(CN2CCN(c3ccccc3)CC2)cc(Br)c2cccnc12`: the TGI in test [1] is above 37.6 µM; in test [2] it was above 100 µM; in test [3] it was above 100 µM; in test [4], above 100 µM; in test [5], above 100 µM; in test [7] it was 32.5 µM. For the same compound, the TGI in test [8] was above 29.3 µM; in test [9] it was above 100 µM; in test [10], 3.81 µM.

Turning to `O=C(CCc1ccc(O)cc1)N/N=C/c1cc(Br)ccc1O`, the GI50 is 4.76 µM in test [1]; 3.36 µM in test [2]; 3.31 µM in test [3]; 5.72 µM in test [4]; 3.19 µM in test [5]; 7.12 µM in test [6]. Also, the GI50 is 4.14 µM in test [7], 14 µM in test [9] and 2.5 µM in [10]. The TGI is 73.6 µM in [1]; 31.5 µM in [2]; 90.2 µM in test [3]; above 100 µM in test [4]; 82 µM in test [5]; 96.9 µM in [6]. Moreover, the TGI was above 100 µM in [7], above 100 µM in test [9] and 9.66 µM in [10].

For the compound `O=C(O)Cn1cc([N+](=O)[O-])c(=O)c2ccccc21`, the TGI in test [1], in test [2], in test [3], in [4], in test [6] and in test [7] was above 100 µM in each case. In addition, the TGI was 33.7 µM in [9] and above 100 µM in test [10].

On to `CCN(Cc1c(Cl)cccc1Cl)c1ccc(CO)c(Cl)c1`, for which the GI50 in test [1] was 11.7 µM; in test [2], 13.7 µM; in test [3], 0.146 µM; in [4] it was 11.9 µM; in test [5], 0.194 µM; in test [6], 12.3 µM. Besides, the GI50 was 11.3 µM in test [7], 2.41 µM in [9] and 8.17 µM in test [10]. The TGI came out at 24 µM in [1]; 28.4 µM in test [2]; 13.4 µM in test [3]; 25.5 µM in test [4]; 8.24 µM in test [5]; 27.6 µM in [6]. Moreover, the values for the TGI in test [7], in [9] and in [10] were 23.9 µM, 11.7 µM and 25.7 µM, respectively.

For the compound `Cc1ccc([C@]2(C)CC[C@H](C)/C2=C\Br)c(O)c1`, the GI50 in test [1] was 4.05 µM; in test [2], 3.55 µM; in [3], 4.52 µM; in test [4], 5.07 µM; in [5] it was 3.42 µM; in test [7], 4.2 µM. The GI50 was 5.74 µM in test [8], 2.49 µM in test [9] and 3.47 µM in test [10]. For the same compound, the TGI in test [1] was 15.1 µM; in test [2] it was 13.7 µM; in test [3], 17.9 µM; in test [4], 17.6 µM; in test [5], 14 µM; in [7] it was 17.7 µM. Also, the TGI in test [8] came out at 17.7 µM; in test [9], 6.14 µM; in [10] it was 12.6 µM.

`O=C1C(Cl)=C(Nc2cccc(C(F)(F)F)c2)C(=O)N1Cc1ccc(Cl)cc1`: the GI50 in [1] was 0.545 µM; in [2], 2.35 µM; in test [4], 3.95 µM; in test [5], 5.32 µM; in test [6], 0.835 µM; in [7] it was 0.298 µM. In addition, the GI50 in [9] was 0.867 µM; in test [10], 1.7 µM. Besides, the TGI in test [1] is 10.7 µM; in test [2], 19.6 µM; in [3], 4.82 µM; in test [4] it was 23.6 µM; in [5], above 50.9 µM; in [6] it was 18.8 µM. Also, the TGI in [7] is 16.8 µM; in test [9], 20.1 µM; in test [10], above 100 µM.

Turning to `O=C(O)c1cc2ccccc2c2c1C(=O)c1ccccc1-2`, the TGI in test [1], in test [2], in [3], in test [4], in [5] and in [6] was above 100 µM each time. Also, the TGI in test [7], in test [9] and in [10] was above 100 µM throughout.

On to `O=Nc1c(-c2c(O)[nH]c3ccc(Br)cc23)[nH]c2ccccc12`, for which the GI50 in [1] was 4.09 µM; in test [2], 1.14 µM; in test [3] it was 2.21 µM; in test [4], 9.12 µM; in test [5], 5.94 µM; in test [7], 3.38 µM. Also, the GI50 was 3 µM in [8], 2.82 µM in test [9] and 3.38 µM in test [10]. In addition, the TGI in [1] was above 100 µM; in [2] it was 5.2 µM; in test [3], 8.48 µM; in test [4] it was above 100 µM; in test [5] it was 74.4 µM; in [7] it was 78.9 µM. The values for the TGI in test [8], in [9] and in test [10] were 15.5 µM, 13.9 µM and 6.22 µM, respectively.

Take `O=C1C(Cl)=C(Nc2cccc(O)c2)C(=O)N1Cc1ccc(Cl)cc1Cl`: the GI50 in [1] is 2.67 µM; in [2], 10.1 µM; in test [3] it was 10.9 µM; in test [4] it was 3.89 µM; in test [5], 2.9 µM; in [6], 3.55 µM. For the same compound, the GI50 was 4.88 µM in test [7], 10 µM in test [8] and 3.11 µM in test [9]. In addition, the TGI in test [1] is 15.1 µM; in test [2], 25.2 µM; in test [3] it was 30.7 µM; in test [4] it was 18.3 µM; in test [5], 15 µM; in test [6] it was 16.4 µM. Besides, the TGI in [7] amounted to 19.6 µM; in test [8], 26.6 µM; in [9], 30.2 µM.

As for `O=C(O)/C(=C\c1ccncc1)c1cccc2ccccc12`, the TGI in test [1], in test [2], in [4], in test [5], in test [7] and in test [8] was above 100 µM throughout. Moreover, the TGI in [9] and in [10] was above 100 µM throughout.

As for `O=C(CCCCC(=O)N/N=C\c1ccccc1O)N/N=C\c1ccccc1O`, the GI50 was 4.5 µM in test [1]; 1.73 µM in test [5]; 3.87 µM in test [6]; 5.65 µM in [7]; 7.75 µM in test [8]; 3.67 µM in [9]. The GI50 in [10] is 3.07 µM. The TGI in test [1], in test [5], in test [6], in test [7], in test [8] and in test [9] was above 100 µM throughout. The TGI in test [10] was above 100 µM.

Take `NC(=S)NN=C1CSSC1`: the GI50 in test [1] is 4.67 µM; in [2], 5.92 µM; in test [3], 2.85 µM; in test [4], 4.67 µM; in test [5], 4.32 µM; in [6], 6.74 µM. Also, the results for the GI50 in [7], in test [9] and in test [10] were 3.57 µM, 2.4 µM and 0.516 µM, respectively. Further, the TGI is above 100 µM in [1]; 23.5 µM in test [2]; 17.6 µM in test [3]; 25.9 µM in test [4]; 38.7 µM in test [5]; 40.3 µM in test [6]. For the same compound, the TGI in test [7] was 24.5 µM; in test [9], 5.67 µM; in test [10], 6.81 µM.

Turning to `Cn1cccc1/C=C/c1cc(Br)c(/C=C/c2cccn2C)cc1Br`, the TGI was determined as 72.4 µM in test [1]; 21.7 µM in test [2]; 31.5 µM in [4]; 20.2 µM in [5]; 16.6 µM in test [6]; 37.2 µM in test [8]. Also, the TGI in test [9] was 55 µM; in test [10], 32.4 µM.

As for `COc1ccccc1C(=O)N(C)c1ccc(Cl)c(C(=O)OC(C)C)c1`, the TGI in test [1] is above 100 µM; in [2], 68.7 µM; in [3], above 100 µM; in [4] it was above 100 µM; in test [5], above 100 µM; in test [6] it was above 100 µM. Moreover, the TGI in test [7], in test [8] and in test [9] was above 100 µM throughout.

With `O=C(CC/C(CC(=O)c1ccc(Br)cc1)=N\O)Nc1ccc(Cl)c(Cl)c1`, the TGI in [1], in [2], in test [4], in [5], in test [6] and in [8] was above 100 µM each time. In addition, the TGI in test [9] and in test [10] was above 100 µM in each case.

With `CC(=O)[CH-]C(=O)c1ccccc1.CC(=O)[CH-]C(=O)c1ccccc1.CC[O-].O=C1c2ccccc2C(=O)c2c1ccc(O)c2[O-].[Ti+4]`, the TGI in test [1] is above 100 µM; in test [2] it was above 100 µM; in test [4], above 100 µM; in test [5], above 100 µM; in [6], above 100 µM; in test [8], 83.2 µM. Besides, the TGI in [9] is above 100 µM; in [10], 56.6 µM. Besides, in [10], the GI50 was 19.6 µM.

`CC[C@H](C)C(=O)O[C@H]1C[C@H](O)C=C2C=C[C@H](C)[C@H](CC[C@@H](O)C[C@@H](O)CC(=O)O)[C@H]21`: the GI50 in [1], in test [2], in test [3], in test [4], in test [5] and in test [6] was above 100 µM in each case. For the same compound, the GI50 in [7], in test [9] and in test [10] was above 100 µM each time. Also, the TGI in [1], in test [2], in [3], in test [4], in test [5] and in [6] was above 100 µM each time. Besides, the TGI in [7], in test [9] and in test [10] was above 100 µM in each case.
